{"source": "patent US10188633B2", "about": "“Identification of small molecules that facilitate therapeutic exon skipping” (The Regents of the University of California, priority 2011, dated 2019)", "key": {"[1]": {"conditions": "cited from earlier work"}, "[2]": {"tested_on": "human DMD exon 50 GFP based reporter", "experiment": "BioMol high throughput screen in Ex50-GFP reporter C2C12 myoblasts, with or without AON6", "assay_type": "cell-based, mouse", "conditions": "With AON6 screen, compound 10 uM", "description": "Small molecule libraries were screened for exon skipping promoting activity in C2C12 myoblasts expressing a human DMD exon 50 GFP based reporter. […] In the reporter cells, successful skipping of DMD exon 50 creates in-frame GFP expression. Number of cells that were fluorescing was quantified using a high content cell imager in 384 well plate format. Fluorescence was normalized by subtracting the average fluorescence value of the carrier (DMSO) controls. Fluorescence readouts are plotted for the BioMol library screen both with (+AO) and without (−AO) from Source Plate 1 (containing the Orphan Ligand, Ion Channel, Enzyme Inhibitor, and Endocannabanoid libraries, n=300). Each point for the DMSO controls, all compounds, and the Top 5% from Source Plate 1 (n=15) represents the average normalized fluorescence of 6 replicates in the −AO screen and 3 replicates in the +AO screen. […] Individual points for dantrolene are plotted with the bold horizontal line indicating the median. The short horizontal lines interspersed among the data points indicate 1, 2, and 3 standard deviations away from the DMSO treatment mean fluorescence.\nIn contrast to prior screens aimed at identifying small molecules which impact exon skipping, our screen is unique at least because it relies on robust quantitation of a skipping reporter in the context of a muscle lineage cell in the presence and absence of suboptimal AO. These screens were performed using a mouse muscle cell line (C2C12) expressing a human DMD exon 50 GFP based reporter selected to minimize experimental variation and sensitivity in the context of an automated and quantitative fluorescent scanning system.\nAO was added prior to small molecule incubation in an effort to identify molecules that facilitate AO skipping rather than AO delivery. The fluorescence induced by each compound was normalized to a vehicle controls per plate to correct for plate to plate variability. Fluorescence was averaged across replicate plates (n=6 without AO screen, n=3 with AO screen). Compounds were rank ordered based on average intensity of fluorescence and difference between the without AO and with AO screen (FIG. 1 and Table 2).\n(§1) A stable clone was generated from C2C12 cells transfected with a human exon 50 DMD GFP reporter (ex50GFP) that has been previously described. Ex50GFP reporter myoblasts were seeded into uncoated 384 well plates and were incubated for 4 hours either with or without 300 nM of 2′-O-methyl phosphorothioate AON6 [5′[…] 3′ (SEQ ID NO:1)] targeting the human exon 50 splice donor site. Cells were transfected with AON6 using the FUGENE (Roche) transfection reagent per manufacturer's instructions. Following AON6 incubation, each component of the BioMol library (n=503) was screened at 10 uM concentration with a final concentration of the DMSO carrier being 1%. Forty-eight hours later fluorescence was measured using the MicroXpress high content imager and analyzed using MetaXpress. Immediately preceding imaging, DNA was stained with Hoescht for 30 min. The BioMol screen without AO (−AO) was performed in 6 replicates, and the with AO (+AO) screen was performed in 3 replicates. For the screen analysis raw fluorescence values were normalized to carrier controls present on each plate by subtracting the values. Negative fluorescence values were set to 0. The data from each compound were averaged from all replicates. For secondary screening by 12 or 16 point dose response, Ex50GFP myoblasts or C2C12 cells without the reporter were seeded on uncoated 384 well plates. A sub-optimal dose of AON6 targeting DMD exon 50 was added for 4 hours."}, "[3]": {"tested_on": "human DMD exon 50 GFP based reporter", "experiment": "Secondary screening, 12 or 16 point titrations on the DMD exon 50 reporter cell line with or without AON6", "assay_type": "cell-based, mouse", "procedure": "12 or 16 point titrations of compounds were added to the Ex50-GFP and C2C12 myoblasts either with or without AON6.\nas §1, with “hours. Following the 4 hour incubation, a compound dilution was added (beginning at 100 uM with 1:1 dilutions) for either 12 or 16 points. After a 48 hour incubation with compounds, DNA was stained with Hoescht, and fluorescence determined using the high content imager and analyzed with MetaXpress.” for “hours.”"}, "[4]": {"tested_on": "Ca2+-ATPase of sarcoplasmic reticulum", "conditions": "at 0.5-2 μM ATP; cited from earlier work"}, "[5]": {"tested_on": "DMD exon 31", "conditions": "cited from earlier work"}, "[6]": {"conditions": "48 h, normalized to DMSO carrier controls"}}}
{"compound": "O=C1CN(/N=C/c2ncc(-c3ccc(Br)cc3)o2)C(=O)N1", "note": "[azumolene]", "values": [{"measurement": "water solubility relative to dantrolene", "setting": "[1]", "value": "more water soluble than dantrolene"}]}
{"compound": "CYCLOPIAZONIC ACID", "values": [{"measurement": "Fluorescence Plate 1", "setting": "[2]; 48 h, fluorescence normalized by subtracting DMSO carrier controls", "value": 29.57}, {"measurement": "Fluorescence Plate 2", "setting": "[2]; [6]", "value": 33.40}, {"measurement": "Fluorescence Plate 3", "setting": "[2]; [6]", "value": 17.24}, {"measurement": "Average Fluorescence (n = 3)", "setting": "[2]; average of 3 replicate plates", "value": 26.74}, {"measurement": "increase in fluorescence in the Ex50-GFP+AO compared to the reporter line without AO", "setting": "[3]; 12 or 16 point titrations from 100 uM, positivity criterion (FIG. 5 legend: >10%)", "value": 10, "unit": "%"}, {"measurement": "dose response in Ex50-GFP reporter", "setting": "[3]; 12 or 16 point titrations with AON6", "value": "evidence of a dose response"}, {"measurement": "amount completely inhibiting the enzyme", "setting": "[4]", "value": "Induces the release of intracellular stored Ca2+, without increasing IP3 levels, via inhibition of endoplasmic reticulum Ca2+− ATPase. It is a highly specific inhibitor of the Ca2+− ATPase of sarcoplasmic reticulum, completely inhibiting the enzyme at 6-8 nmol/mg protein (at 0.5-2 μM ATP)."}]}
{"compound": "CCN1/C(=C/C(C)=O)Sc2ccc(OC)cc21", "note": "[TG003]", "values": [{"measurement": "mutant exon 31 skipping", "setting": "[5]", "value": "increased mutant exon 31 skipping"}]}
